Measurements taken from patent US8802439B2, “Methods for enhancing infectivity of retroviruses” (priority 2009, dated 2014).
“Also recorded” adds a separate entry of the source.

Columns and labels:
[1] = test system: bMLV-GFP; test: Infectivity of bMLV-GFP virions (RT-normalized), GFP fluorescence via FACS; type: cell-based
Protocol: 293T cells were transfected with HIV-1-GFP, SIV-GFP, bMLV-GFP, and nMLV-GFP proviral constructs, and in each case CMV-VSV-G, in the presence or absence of PiB or excess Pin1 as described above. Released virions were normalized via RT assay (EnzChek® Reverse Transcriptase Assay Kit), and infectivity on naïve TZMb1 cells was analyzed by GFP fluorescence via FACS (% cells infected).
(§1) Infection assays for retrovirus: Single-round infections: CD4^+ TZM-bl 100,000 cells/well/mL were seeded onto 24-well plates 24 hours prior to infection. These cells were infected in quadruplicate to 24-well plates. Infectivity was scored using an enzymatic galactosidase activity assay. Specifically, infected TZM-bl cells were washed and lysed, and 20 μl of lysate was transferred to a 96-well plate for detecting β-galactosidase activity. 100 μl of reaction buffer Galacton-Star substrate (Applied Biosystems, Bedford, Mass.), diluted 1:50, was added to 20 μl of lysate, and the light emission was measured over 1 second in a microplate luminometer after 30 minutes incubation. […] Replication was monitored by p24 ELISA. […] Viruses were used to infect in duplicate wells, incubated for 48 hours, washed with PBS, trypsinized, fixed in 1% formaldehyde and subsequently analyzed by fluorescence-activated cell sorting (FACS) for percentage cells infected.
(§2) We further examined whether blocking Pin1 in producer cells can enhance the infectivity of retroviruses in different primate target cells. […] Infectivity was analyzed by GFP fluorescence via FACS. […] If more cells are infected than the number infected by viruses from untreated cells, this is expressed as a value above 100%—e.g. 2000 cells/10,000 vs 4000 cells/10,000 would be 100% and 200% respectively. […]
In addition to human producer cells, we also examined effect of blocked Pin activity on infectivity of viruses produced in mouse cell lines and nonhuman primate cell lines. […] Infectivity was analyzed by GFP fluorescence via FACS. […]

[2] = test system: nMLV-GFP; test: Infectivity of nMLV-GFP virions (RT-normalized), GFP fluorescence via FACS; type: cell-based; conditions: produced with PiB; TZM, OMK, sMAGI, Vero, CV-1 target cells
Protocol: as §1, §2

[3] = test system: HCV; test: HCV infectivity titer of supernatants from persistently infected HUH-7 cells; type: cell-based; conditions: PiB 16 μM and 8 μM, 1 hour pre-treatment plus 9 hours at 37° C.
Protocol: Cells persistently infected with HCV were treated with vehicle (DMSO), an MTP inhibitor (BMS-200150) capable of inhibiting HCV secretion, or with two doses of PiB (16 μM and 8 μM). After 1 hour of pre-treatment at 37° C., cells were washed with warm PBS and further incubated in normal medium containing the same drugs for an additional 9 hours at 37° C. Cell supernatants containing infectious HCV were collected for infectivity titer determination.
Infection assays for HCV: Persistently infected cells were treated with vehicle (DMSO), an MTP inhibitor (BMS-200150) capable of inhibiting HCV secretion, or with two doses of PiB (16 μM and 8 μM). After 1 hour of pre-treatment at 37° C., cells were washed with warm PBS and further incubated in normal medium containing the same inhibitors for an additional 9 hours at 37° C. Cell supernatants containing infectious HCV were collected for infectivity titer determination. […] Note that Pin1 is able to block HIV-1 in the HUH-7 cell line used to propagate HCV.
Persistently infected HUH-7 cells were treated with solvent DMSO (circles), or increasing concentrations of PiB (squares). After 1 hour of pre-treatment cells were washed and further incubated in normal medium containing the same inhibitors for an additional 9 hours at 37° C. Cell supernatants containing infectious HCV were collected for infectivity titer determination.

[4] = test system: 293T cells; conditions: cell count and trypan blue staining (data not shown)
Excerpt: To examine a potential role for Pin1 in HIV-1 replication we used two inhibitors of Pin1: juglone and PiB. […] 293T cells were transfected with a proviral construct encoding wild-type HIV-1 in the presence or absence of PiB or juglone.

[5] = biological target: Pin1 PPIase (Homo sapiens, UniProt Q13526); conditions: cited from earlier work
[6] = test system: other prolyl isomerases such as CypA or FKBP; conditions: cited from earlier work
[7] = cited from earlier work

Pin1 PPIase, sequence (Q13526 whole entry): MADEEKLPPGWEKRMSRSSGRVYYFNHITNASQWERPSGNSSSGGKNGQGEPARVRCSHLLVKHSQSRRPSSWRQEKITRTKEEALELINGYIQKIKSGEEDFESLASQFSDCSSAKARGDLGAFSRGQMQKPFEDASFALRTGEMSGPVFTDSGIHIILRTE

In the case of `CCOC(=O)CN1C(=O)c2ccc3c4c(ccc(c24)C1=O)C(=O)N(CC(=O)OCC)C3=O` [PiB, diethyl-1,3,6,8-tetrahydro-1,3,6,8-tetraoxobenzo[lmn][3,8]phenanthroline-2,7-diacetate], the “infectivity of MLV produced in mouse embryonic fibroblasts” value ([1]; MEF producer cells with PiB, TZM target cells) is reported as “enhanced infectivity”, the “boost of bMLV-GFP infectivity” value ([1]; produced in 293T with PiB, TZMb1 cells) is reported as 2 fold and the “infectivity of bMLV-GFP in primate target cell panel” value ([1]; produced with PiB, TZM, OMK, sMAGI, Vero, CV-1 target cells) is reported as “enhanced infectivity”. For the same compound, the “infectivity of nMLV-GFP in primate target cell panel” value [2] was “enhanced infectivity”, the “infectious HCV in cell supernatants (infectivity titer)” value [3] was “does not enhance HCV infectivity; also recorded: does not enhance replication” and the producer cell viability [4] was “no effect”. The “IC50 of Pin1 PPIase activity in vitro” value [5] was “low mM”, the “inhibition of other PPIase families (CypA, FKBP)” value [6] was “do not inhibit” and the “stability at 37°” value ([7]; 37°) was “instability”. The “stability in aqueous solution” value ([7]; aqueous solution) was “breaks down in aqueous solution”.
